pIC50: −log10 of the molar value.
Biological target: Nucleotide-binding oligomerization domain-containing protein 2 (Homo sapiens, UniProt Q9HC29)
Assay: Inhibition of NOD2 in human monocytes assessed as reduction in MDP-induced TNFalpha production preincubated for 30 mins followed by MDP-stimulation and measured after 6 hrs by immunoassay

Nucleotide-binding oligomerization domain-containing protein 2, sequence (Q9HC29 whole entry, the tested form may be a part): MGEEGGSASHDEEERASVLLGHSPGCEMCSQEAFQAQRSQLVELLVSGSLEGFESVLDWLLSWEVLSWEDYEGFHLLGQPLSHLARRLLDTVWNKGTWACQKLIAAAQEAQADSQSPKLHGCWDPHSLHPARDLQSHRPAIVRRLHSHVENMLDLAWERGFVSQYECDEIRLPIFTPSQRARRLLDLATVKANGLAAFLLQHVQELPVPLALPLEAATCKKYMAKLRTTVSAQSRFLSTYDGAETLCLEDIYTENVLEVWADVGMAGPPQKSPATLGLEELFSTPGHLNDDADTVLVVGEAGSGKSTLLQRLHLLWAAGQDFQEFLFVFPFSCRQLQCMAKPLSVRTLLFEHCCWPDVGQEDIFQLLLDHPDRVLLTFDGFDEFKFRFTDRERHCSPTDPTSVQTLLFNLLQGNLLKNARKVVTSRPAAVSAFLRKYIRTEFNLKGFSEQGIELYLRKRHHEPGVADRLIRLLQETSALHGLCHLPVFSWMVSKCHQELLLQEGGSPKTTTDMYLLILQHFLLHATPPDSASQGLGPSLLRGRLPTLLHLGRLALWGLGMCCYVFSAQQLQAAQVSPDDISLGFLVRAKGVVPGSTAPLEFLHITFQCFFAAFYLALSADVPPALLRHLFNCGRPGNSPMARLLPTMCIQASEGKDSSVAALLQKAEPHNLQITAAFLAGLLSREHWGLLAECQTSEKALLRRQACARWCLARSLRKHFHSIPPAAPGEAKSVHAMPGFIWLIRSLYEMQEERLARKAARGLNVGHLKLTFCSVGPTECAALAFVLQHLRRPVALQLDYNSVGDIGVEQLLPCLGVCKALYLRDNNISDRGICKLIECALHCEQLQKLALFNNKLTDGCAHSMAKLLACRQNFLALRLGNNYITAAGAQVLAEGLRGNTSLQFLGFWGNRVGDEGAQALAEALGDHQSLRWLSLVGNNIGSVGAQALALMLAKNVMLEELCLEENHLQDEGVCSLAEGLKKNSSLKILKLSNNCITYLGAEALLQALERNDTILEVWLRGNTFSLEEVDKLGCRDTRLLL

In the case of CC(C)(C)S(=O)(=O)c1cc2c(Nc3ccc4scnc4c3)ncnc2cc1OCCO, the pIC50 was 7.89.

— BindingDB's records for doi:10.1021/acs.jmedchem.9b00575 (Glaxosmithkline, 2019)
